Measured values as given in ChEMBL document CHEMBL1201862, “PubChem BioAssay data set” (2004).
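Briefly, cells in 96-well plates were exposed to five compound concentrations for 48 h, and endpoints were estimated by linear interpolation. GI50 marks 50% less growth.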 Active and inactive are the calls of the source. No stated cut-off is given here; in the data, active = GI50 up to about 1.1 µM and inactive = higher.

Columns and labels:
Assay in all cases: DTP human tumour cell line panel, 48 h
786-0 = system: 786-0
A498 = system: A498
A549 = system: A549
ACHN = system: ACHN
BT-549 = system: BT-549
CAKI-1 = system: CAKI-1
CCRF-CEM = system: CCRF-CEM
COLO 205 = system: COLO 205
DU-145 = system: DU-145
EKVX = system: EKVX
HCC 2998 = system: HCC 2998
HCT-116 = system: HCT-116
HCT-15 = system: HCT-15
HOP-62 = system: HOP-62
HOP-92 = system: HOP-92
K562 = system: K562
KM12 = system: KM12
M14 = system: M14
MCF7 = system: MCF7
MDA-MB-231 = system: MDA-MB-231
MDA-MB-435 = system: MDA-MB-435
MDA-N = system: MDA-N
MOLT-4 = system: MOLT-4
Malme-3M = system: Malme-3M
NCI-H226 = system: NCI-H226
NCI-H23 = system: NCI-H23
NCI-H460 = system: NCI-H460
NCI-H522 = system: NCI-H522
NCI/ADR-RES = system: NCI/ADR-RES
OVCAR-3 = system: OVCAR-3
OVCAR-4 = system: OVCAR-4
OVCAR-5 = system: OVCAR-5
PC-3 = system: PC-3
RPMI-8226 = system: RPMI-8226
SF-268 = system: SF-268
SF-295 = system: SF-295
SK-MEL-28 = system: SK-MEL-28
SK-MEL-2 = system: SK-MEL-2
SK-MEL-5 = system: SK-MEL-5
SK-OV-3 = system: SK-OV-3
SN12C = system: SN12C
SNB-19 = system: SNB-19
SNB-75 = system: SNB-75
T47D = system: T47D
TK-10 = system: TK-10
U-251 = system: U-251
UACC-257 = system: UACC-257
UACC-62 = system: UACC-62
UO-31 = system: UO-31
HT-29 = system: HT-29
IGROV-1 = system: IGROV-1
LOX IMVI = system: LOX IMVI
OVCAR-8 = system: OVCAR-8
RXF 393 = system: RXF 393
SF-539 = system: SF-539
SR = system: SR
SW-620 = system: SW-620

O=c1[nH]c(=S)c2cc3c(=S)[nH]c(=O)n(CCC(c4ccccc4)(c4ccccc4)c4ccccc4)c3nc2n1CCC(c1ccccc1)(c1ccccc1)c1ccccc1 was tested, and the GI50 (786-0) was > 100 µM (inactive), the GI50 (A498) was > 100 µM (inactive) and the GI50 (A549) was > 100 µM (inactive). The GI50 (ACHN) was > 100 µM (inactive), the GI50 (BT-549) was > 100 µM (inactive) and the GI50 (CAKI-1) was > 100 µM (inactive). The GI50 (CCRF-CEM) was 13.6 µM (inactive), the GI50 (COLO 205) was > 100 µM (inactive) and the GI50 (DU-145) was > 100 µM (inactive). For the same molecule, the GI50 (EKVX) was > 100 µM (inactive), the GI50 (HCC 2998) was > 100 µM (inactive) and the GI50 (HCT-116) was > 100 µM (inactive). The GI50 (HCT-15) was over 100 µM, the GI50 (HOP-62) was > 100 µM (inactive) and the GI50 (HOP-92) was > 100 µM (inactive). The GI50 (K562) was 24.8 µM (inactive), the GI50 (KM12) was > 100 µM (inactive) and the GI50 (M14) was > 100 µM (inactive). The GI50 (MCF7) was > 100 µM (inactive), the GI50 (MDA-MB-231) was 59.4 µM (inactive) and the GI50 (MDA-MB-435) was > 100 µM (inactive). The GI50 (MDA-N) was > 100 µM (inactive), the GI50 (MOLT-4) was 15.4 µM (inactive) and the GI50 (Malme-3M) was > 100 µM (inactive). The GI50 (NCI-H226) was > 100 µM (inactive), the GI50 (NCI-H23) was > 100 µM (inactive) and the GI50 (NCI-H460) was > 100 µM (inactive). For the same molecule, the GI50 (NCI-H522) was > 100 µM (inactive), the GI50 (NCI/ADR-RES) was > 100 µM (inactive) and the GI50 (OVCAR-3) was > 100 µM (inactive). The GI50 (OVCAR-4) was > 100 µM (inactive), the GI50 (OVCAR-5) was > 100 µM (inactive) and the GI50 (PC-3) was > 100 µM (inactive). The GI50 (RPMI-8226) was > 100 µM (inactive), the GI50 (SF-268) was > 100 µM (inactive) and the GI50 (SF-295) was > 100 µM (inactive). The GI50 (SK-MEL-28) was > 100 µM (inactive), the GI50 (SK-MEL-2) was > 100 µM (inactive) and the GI50 (SK-MEL-5) was > 100 µM (inactive). For the same molecule, the GI50 (SK-OV-3) was > 100 µM (inactive), the GI50 (SN12C) was > 100 µM (inactive) and the GI50 (SNB-19) was > 100 µM (inactive). For the same molecule, the GI50 (SNB-75) was > 100 µM (inactive), the GI50 (T47D) was > 100 µM (inactive) and the GI50 (TK-10) was > 100 µM (inactive). The GI50 (U-251) was > 100 µM (inactive), the GI50 (UACC-257) was > 100 µM (inactive) and the GI50 (UACC-62) was > 100 µM (inactive). For the same molecule, the GI50 (UO-31) was > 100 µM (inactive).

For COC1OC(C(=O)O)C2OC(C)(C)OC12 (centres undefined), the GI50 (786-0) was > 100 µM (inactive), the GI50 (A549) was > 100 µM (inactive) and the GI50 (ACHN) was > 100 µM (inactive). For the same molecule, the GI50 (BT-549) was > 100 µM (inactive), the GI50 (CAKI-1) was > 100 µM (inactive) and the GI50 (CCRF-CEM) was > 100 µM (inactive). For the same molecule, the GI50 (COLO 205) was > 100 µM (inactive), the GI50 (DU-145) was > 100 µM (inactive) and the GI50 (EKVX) was > 100 µM (inactive). For the same molecule, the GI50 (HCC 2998) was > 100 µM (inactive), the GI50 (HCT-116) was > 100 µM (inactive) and the GI50 (HCT-15) was over 100 µM. The GI50 (HOP-62) was > 100 µM (inactive), the GI50 (HOP-92) was > 100 µM (inactive) and the GI50 (HT-29) was > 100 µM (inactive). The GI50 (IGROV-1) was > 100 µM (inactive), the GI50 (K562) was > 100 µM (inactive) and the GI50 (KM12) was > 100 µM (inactive). For the same molecule, the GI50 (LOX IMVI) was > 100 µM (inactive), the GI50 (M14) was > 100 µM (inactive) and the GI50 (MCF7) was > 100 µM (inactive). The GI50 (MDA-MB-231) was > 100 µM (inactive), the GI50 (MDA-MB-435) was > 100 µM (inactive) and the GI50 (MDA-N) was > 100 µM (inactive). The GI50 (MOLT-4) was > 100 µM (inactive), the GI50 (Malme-3M) was > 100 µM (inactive) and the GI50 (NCI-H226) was > 100 µM (inactive). For the same molecule, the GI50 (NCI-H23) was > 100 µM (inactive), the GI50 (NCI-H460) was > 100 µM (inactive) and the GI50 (NCI-H522) was > 100 µM (inactive). For the same molecule, the GI50 (NCI/ADR-RES) was > 100 µM (inactive), the GI50 (OVCAR-3) was > 100 µM (inactive) and the GI50 (OVCAR-4) was > 100 µM (inactive). The GI50 (OVCAR-5) was > 100 µM (inactive), the GI50 (OVCAR-8) was > 100 µM (inactive) and the GI50 (PC-3) was > 100 µM (inactive). For the same molecule, the GI50 (RPMI-8226) was > 100 µM (inactive), the GI50 (RXF 393) was > 100 µM (inactive) and the GI50 (SF-268) was > 100 µM (inactive). For the same molecule, the GI50 (SF-295) was > 100 µM (inactive), the GI50 (SF-539) was > 100 µM (inactive) and the GI50 (SK-MEL-28) was > 100 µM (inactive). The GI50 (SK-MEL-2) was > 100 µM (inactive), the GI50 (SK-MEL-5) was > 100 µM (inactive) and the GI50 (SK-OV-3) was > 100 µM (inactive). The GI50 (SN12C) was > 100 µM (inactive), the GI50 (SNB-19) was > 100 µM (inactive) and the GI50 (SNB-75) was > 100 µM (inactive). For the same molecule, the GI50 (SR) was > 100 µM (inactive), the GI50 (SW-620) was > 100 µM (inactive) and the GI50 (TK-10) was > 100 µM (inactive). For the same molecule, the GI50 (U-251) was > 100 µM (inactive), the GI50 (UACC-257) was > 100 µM (inactive) and the GI50 (UACC-62) was > 100 µM (inactive). The GI50 (UO-31) was > 100 µM (inactive).
